Tested on: Plasmodium falciparum 3D7
Assay: P. falciparum 3D7 asexual blood stage assay, Assay Procedure Version 2 (SYBR green readout)
Assay type: cell-based
Conditions: Version 2 of the assay procedure (asterisk *), 72 h incubation in infected erythrocytes, 50,000 nM to 15 nM
In short: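 P. falciparum 3D7 in A+ erythrocytes (5% haematocrit, 0.5% parasitaemia) exposed 72 h at 37 °C (1% O2, 3% CO2) to 20-point 1.5-fold titrations, final 50,000–15 nM in 0.5% DMSO. SYBR green in lysis buffer overnight, fluorescence 485/528 nm; % inhibition vs mefloquine and DMSO controls, EC50 from biphasic two-site fit.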

[1] = Plasmodium falciparum, 3D7, Erythrocyte, 72 h

SMILES	IC50 [1]	IC50
C[C@@]1(c2cccc(Nc3ccc(F)cn3)c2Cl)CC(=O)N([C@H]2C[C@@](C)(O)C2)C(=N)N1 [Example 126, (6S)-6-{2-Chloro-3-[(5-fluoro-pyridin-2-yl)amino]phenyl}-3-(3-hydroxy-3-methylcyclo-butyl)-2-imino-6-methyl-hexahydropyrimidin-4-one]	1750 nM	–
CCc1ccc(Nc2cccc([C@]3(C)CC(=O)N(C4CCOCC4)C(=N)N3)c2Cl)cn1 [Example 111, (6S)-6-{2-Chloro-3-[(6-ethyl-pyridin-3-yl)amino]phenyl}-2-imino-6-methyl-3-(tetrahydro-pyran-4-yl)hexahydropyrimidin-4-one]	248 nM	–
C[C@@]1(c2cccc(Nc3ccc(C4CC4)nn3)c2Cl)CC(=O)N(C2CCOCC2)C(=N)N1 [Example 197, (6S)-6-{2-Chloro-3-[(6-cyclo-propylpyridazin-3-yl)amino]-phenyl}-2-imino-6-methyl-3-(tetrahydropyran-4-yl)-hexahydropyrimidin-4-one]	536 nM	–
C[C@@]1(c2cccc(Nc3ccc(F)cc3)c2Cl)CC(=O)N(C2CC(O)(C(F)(F)F)C2)C(=N)N1 [Example 179, (6S)-6-[2-Chloro-3-(4-fluoro-anilino)phenyl]-3-[3-hydroxy-3-(trifluoromethyl)cyclobutyl]-2-imino-6-methyl-hexahydro-pyrimidin-4-one (cis isomer)]	381 nM	–
Cc1ccc(Nc2cccc([C@]3(C)CC(=O)N([C@H]4CCO[C@@H](C)C4)C(=N)N3)c2Cl)cn1 (single isomer, unassigned) [Example 136]	249 nM	–
C[C@@]1(c2cccc(Nc3ccc(OC(F)(F)F)nc3)c2Cl)CC(=O)N([C@H]2C[C@@](C)(O)C2)C(=N)N1 [Example 130, (6S)-6-(2-Chloro-3-{[6-(trifluoromethoxy)pyridin-3-yl]-amino}phenyl)-3-(3-hydroxy-3-methylcyclobutyl)-2-imino-6-methylhexahydropyrimidin-4-one]	744 nM	–
Cc1ccc(Nc2cccc([C@]3(C)CC(=O)N(C4CCC(F)(F)CC4)C(=N)N3)c2Cl)cn1 [Example 139, (6S)-6-{2-Chloro-3-[(6-methyl-pyridin-3-yl)amino]phenyl}-3-(4,4-difluorocyclohexyl)-2-imino-6-methylhexahydro-pyrimidin-4-one]	132 nM	–
CC[C@]1(O)C[C@H](N2C(=N)N[C@](C)(c3cccc(Nc4ccc(F)cc4)c3Cl)CC2=O)C1 [Example 177, (6S)-6-[2-Chloro-3-(4-fluoro-anilino)phenyl]-3-(3-ethyl-3-hydroxycyclobutyl)-2-imino-6-methylhexahydropyrimidin-4-one (trans isomer)]	2450 nM	–
CC(C)(C)c1ccc(Nc2cccc([C@]3(C)CC(=O)N(C4CCOCC4)C(=N)N3)c2Cl)cn1 [Example 105, (6S)-6-{3-[(6-tert-Butylpyridin-3-yl)amino]-2-chlorophenyl}-2-imino-6-methyl-3-(tetrahydro-pyran-4-yl)hexahydropyrimidin-4-one]	318 nM	–
C[C@@]1(c2cccc(Nc3ccc(F)cc3C#N)c2Cl)CC(=O)N(C2CCOCC2)C(=N)N1 [Example 82, 2-{2-Chloro-3-[(4S)-2-imino-4-methyl-6-oxo-1-(tetrahydro-pyran-4-yl)hexahydropyrimidin-4-yl]anilino}-5-fluorobenzo-nitrile]	137 nM	–
C[C@@]1(c2cccc(Nc3ccc(OCC(F)(F)F)nc3)c2Cl)CC(=O)N(C2CCOCC2)C(=N)N1 [Example 112, (6S)-6-(2-Chloro-3-{[6-(2,2,2-trifluoroethoxy)pyridin-3-yl]-amino}phenyl)-2-imino-6-methyl-3-(tetrahydropyran-4-yl)hexahydropyrimidin-4-one]	642 nM	–
Cc1ncc(Nc2cccc([C@]3(C)CC(=O)N(C4CCOCC4)C(=N)N3)c2Cl)c2ccccc12 [Example 90, (6S)-6-{2-Chloro-3-[(1-methyl-isoquinolin-4-yl)amino]phenyl}-2-imino-6-methyl-3-(tetrahydro-pyran-4-yl)hexahydropyrimidin-4-one]	3110 nM	–
CC1(C)CC(N2C(=N)N[C@](C)(c3cccc(Nc4ccc(C5CC5)nc4)c3Cl)CC2=O)CCO1 (single isomer, unassigned) [Example 147, (6S)-6-{2-Chloro-3-[(6-cyclo-propylpyridin-3-yl)amino]-phenyl}-3-[(4S*)-2,2-dimethyl-tetrahydropyran-4-yl]-2-imino-6-methylhexahydropyrimidin-4-one]	–	287 nM

More lines, now with the values ahead:

IC50 [1]	IC50	SMILES
652 nM	–	Cc1nnc(-c2ccc(Nc3cccc([C@]4(C)CC(=O)N(C5CCOCC5)C(=N)N4)c3Cl)cc2)o1 [Example 80, (6S)-6-{2-Chloro-3-[4-(5-methyl-1,3,4-oxadiazol-2-yl)-anilino]phenyl}-2-imino-6-methyl-3-(tetrahydropyran-4-yl)hexahydropyrimidin-4-one]
425 nM	–	C[C@@]1(c2cccc(Nc3ccc(C(F)F)nc3)c2Cl)CC(=O)N(C2CCOCC2)C(=N)N1 [Example 81, (6S)-6-(2-Chloro-3-{[6-(difluoromethyl)pyridin-3-yl]-amino}phenyl)-2-imino-6-methyl-3-tetrahydropyran-4-yl-hexahydropyrimidin-4-one]
747 nM	–	C[C@H]1C[C@H](N2C(=N)N[C@](C)(c3cccc(Nc4ccc(C5CC5)nc4)c3Cl)CC2=O)CCO1 (single isomer, unassigned; peak 2) [Example 194, (6S)-6-{2-Chloro-3-[(6-cyclo-propylpyridin-3-yl)amino]-phenyl}-2-imino-6-methyl-3-[(2S*,4R*)-2-methyltetrahydro-pyran-4-yl]hexahydropyrimidin-4-one (Peak 2)]
21 nM	–	Cc1ccc(Nc2cccc([C@]3(C)CC(=O)N([C@@H]4CCO[C@H](C)C4)C(=N)N3)c2Cl)cn1 (single isomer, unassigned) [Example 135]
216 nM	–	C[C@@]1(c2cccc(Nc3cccnc3OC(F)F)c2Cl)CC(=O)N(C2CCOCC2)C(=N)N1 [Example 97, (6S)-6-(2-Chloro-3-{[2-(difluoromethoxy)pyridin-3-yl]-amino}phenyl)-2-imino-6-methyl-3-(tetrahydropyran-4-yl)hexahydropyrimidin-4-one]
600 nM	–	C[C@@]1(c2cccc(Nc3cccc4ccccc34)c2Cl)CC(=O)N(C2CCOCC2)C(=N)N1 [Example 57, (6S)-6-[2-Chloro-3-(1-naphthyl-amino)phenyl]-2-imino-6-methyl-3-(tetrahydropyran-4-yl)hexahydropyrimidin-4-one]
138 nM	–	C[C@@]1(c2cccc(Nc3ccc(Cl)cc3S(C)(=O)=O)c2Cl)CC(=O)N(C2CCOCC2)C(=N)N1 [Example 118, (6S)-6-{2-Chloro-3-[4-chloro-2-(methylsulfonyl)anilino]-phenyl}-2-imino-6-methyl-3-(tetrahydropyran-4-yl)-hexahydropyrimidin-4-one]
524 nM	–	C[C@@]1(c2cccc(Nc3cccc4c3OC(F)(F)O4)c2Cl)CC(=O)N(C2CCOCC2)C(=N)N1 [Example 68, (6S)-6-{2-Chloro-3-[(2,2-difluoro-1,3-benzodioxol-4-yl)amino]phenyl}-2-imino-6-methyl-3-tetrahydropyran-4-yl-hexahydropyrimidin-4-one]
4510 nM	–	C[C@@]1(c2cccc(Nc3ccc(C#N)nc3)c2Cl)CC(=O)N([C@H]2C[C@@](C)(O)C2)C(=N)N1 [Example 122, 5-{2-Chloro-3-[(4S)-1-(3-hydroxy-3-methylcyclobutyl)-2-imino-4-methyl-6-oxo-hexahydropyrimidin-4-yl]-anilino}pyridine-2-carbonitrile]
253 nM	–	C[C@@]1(c2cccc(Nc3cnccc3C(F)(F)F)c2Cl)CC(=O)N(C2CCOCC2)C(=N)N1 [Example 56, (6S)-6-(2-Chloro-3-{[4-(trifluoromethyl)pyridin-3-yl]-amino}phenyl)-2-imino-6-methyl-3-(tetrahydropyran-4-yl)hexahydropyrimidin-4-one]
232 nM	–	C[C@@]1(c2cccc(Nc3ccc(C4CC4)nc3)c2Cl)CC(=O)N(C2CCC(F)(F)CC2)C(=N)N1 [Example 142, (6S)-6-{2-Chloro-3-[(6-cyclo-propylpyridin-3-yl)amino]-phenyl}-3-(4,4-difluoro-cyclohexyl)-2-imino-6-methyl-hexahydropyrimidin-4-one]
374 nM	–	C[C@@]1(c2cccc(Nc3ccc(C4CCC4)nc3)c2Cl)CC(=O)N(C2CCOCC2)C(=N)N1 [Example 106, (6S)-6-{2-Chloro-3-[(6-cyclo-butylpyridin-3-yl)amino]-phenyl}-2-imino-6-methyl-3-(tetrahydropyran-4-yl)-hexahydropyrimidin-4-one]
623 nM	–	C[C@@]1(c2cccc(Nc3ccn4nccc4c3)c2Cl)CC(=O)N([C@H]2C[C@@](C)(O)C2)C(=N)N1 [Example 132, (6S)-6-[2-Chloro-3-(pyrazolo-[1,5-a]pyridin-5-ylamino)-phenyl]-3-(3-hydroxy-3-methyl-cyclobutyl)-2-imino-6-methyl-hexahydropyrimidin-4-one]
97 nM	–	C[C@@]1(c2cccc(Nc3nccnc3OC(F)F)c2Cl)CC(=O)N(C2CCOCC2)C(=N)N1 [Example 101, (6S)-6-(2-Chloro-3-{[3-(difluoromethoxy)pyrazin-2-yl]-amino}phenyl)-2-imino-6-methyl-3-(tetrahydropyran-4-yl)hexahydropyrimidin-4-one]
401 nM	–	C[C@@]1(c2cccc(Nc3cccc(N4CCCC4=O)c3)c2Cl)CC(=O)N(C2CCOCC2)C(=N)N1 [Example 79, (6S)-6-{2-Chloro-3-[3-(2-oxo-pyrrolidin-1-yl)anilino]phenyl}-2-imino-6-methyl-3-(tetrahydro-pyran-4-yl)hexahydropyrimidin-4-one]
19 nM	–	C[C@@H]1C[C@H](N2C(=N)N[C@](C)(c3cccc(Nc4ccc(OC(F)F)nc4)c3Cl)CC2=O)CCO1 (stereo in doubt) [Example 138, (6S)-6-(2-Chloro-3-{[6-(difluoromethoxy)pyridin-3-yl]-amino}phenyl)-2-imino-6-methyl-3-[(cis)-2-methyl-tetrahydropyran-4-yl]-hexahydropyrimidin-4-one]
